Molecular target: T1, BACE2 (Homo sapiens, UniProt Q9Y5Z0)
T1 construct: BACE2 enzyme ectodomain (derived from plasmid “pET17b-T7-hu proBACE2”) was prepared as described in Ostermann et al; T7 tag (N); made in house
T1 sequence (Q9Y5Z0 21-473 limits assumed): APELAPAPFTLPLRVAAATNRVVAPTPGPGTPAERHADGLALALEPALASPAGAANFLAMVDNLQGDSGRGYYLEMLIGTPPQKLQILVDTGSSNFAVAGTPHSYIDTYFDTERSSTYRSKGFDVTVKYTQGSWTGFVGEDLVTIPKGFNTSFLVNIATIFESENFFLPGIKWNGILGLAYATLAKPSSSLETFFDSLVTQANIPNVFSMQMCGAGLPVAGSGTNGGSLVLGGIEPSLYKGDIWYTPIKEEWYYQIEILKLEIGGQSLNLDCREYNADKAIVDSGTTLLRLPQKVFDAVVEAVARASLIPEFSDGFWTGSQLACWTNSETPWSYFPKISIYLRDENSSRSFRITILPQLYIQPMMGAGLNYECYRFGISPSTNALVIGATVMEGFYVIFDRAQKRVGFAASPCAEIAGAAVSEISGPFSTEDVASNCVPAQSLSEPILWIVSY
Assay: Fluorescent-peptide cleavage assay for BACE2 inhibition
Type: biochemical
Settings: BACE2 enzyme ectodomain, fluorescent peptide WS EVNLD AEFRC-MR121, assay buffer pH 4.5, room temperature
Experimental: Fluorescent-Peptide Cleavage Assay for BACE2 Inhibition
The pro-enzyme was stored at 4° C. at a concentration of 70 μg/ml.
A fluorescent peptide with the amino acid sequence WS EVNLD AEFRC-MR121 was synthesised and a stock solution of 1.5 mM in DMSO prepared and stored at −20° C. MR121 is a fluorophore with an excitation wavelength of 630 nm and emission wavelength of 695 nm. The MR121 fluorescence is quenched by the N-terminal tryptophan until the peptide is cleaved by BACE2.
Assays were all made in a Corning 384-well black polystyrene non-binding surface microtitre plate with clear flat bottom and using a Plate:Vision (Perkin Elmer) fluorescence reader. To perform the assay an 80 nM solution of BACE2 was prepared in assay buffer (assay buffer is 100 mM Na-acetate; 20 mM EDTA; 0.05% BSA; pH 4.5) and incubated at room temperature for 1 hour to activate the enzyme. 39 μl of the activated BACE2 was placed in each assay well, followed by 1 μl compound to be tested at an appropriate concentration in 100% DMSO. The plate was then mixed and incubated for 10 minutes at room temperature.
The assay readout is the rate of change of fluorescence intensity giving a relative measure of BACE2 activity. Small values correspond to high inhibition and larger values to low inhibition. […] IC50 values were determined using these assay values generated for a range of inhibitor concentrations and the curve fitting software XLfit (IDBS) using the Sigmoidal Dose-Response Model.

Compound	IC50 [nM]
Cc1nc(C)c(C(=O)Nc2cccc([C@]3(C)CC(=O)N(C)C(N)=N3)c2)o1 [Example 5, 2,4-Dimethyl-oxazole-5-carboxylic acid [3-((S)-2-amino-1,4-dimethyl-6-oxo-1,4,5,6-tetrahydro-pyrimidin-4-yl)-phenyl]amide]	121
CN1C(=O)C(C)(C)[C@@](C)(c2cc(NC(=O)c3ccc(C#N)cn3)ccc2F)N=C1N [Example 115, 5-Cyano-pyridine-2-carboxylic acid [3-((S)-2-amino-1,4,5,5-tetramethyl-6-oxo-1,4,5,6-tetrahydro-pyrimidin-4-yl)-4-fluoro-phenyl]amide]	63
Cc1cc(Cl)cnc1C(=O)Nc1cccc([C@@]2(C)N=C(N)N(C)C(=O)C2(C)C)c1 [Example 95, 5-Chloro-3-methyl-pyridine-2-carboxylic acid [3-((R)-2-amino-1,4,5,5-tetramethyl-6-oxo-1,4,5,6-tetrahydro-pyrimidin-4-yl)-phenyl]amide]	19
CN1C(=O)C[C@@](C)(c2cccc(NC(=O)c3csc(C(F)(F)F)n3)c2)N=C1N [Example 66, 2-Trifluoromethyl-thiazole-4-carboxylic acid [3-((S)-2-amino-1,4-dimethyl-6-oxo-1,4,5,6-tetrahydro-pyrimidin-4-yl)-phenyl]-amide]	1550
CN1C(=O)C(C)(C)[C@@](C)(c2cc(NC(=O)c3cn4cc(Cl)ccc4n3)ccc2F)N=C1N [Example 120, 6-Chloro-imidazo[1,2-a]pyridine-2-carboxylic acid [3-((S)-2-amino-1,4,5,5-tetramethyl-6-oxo-1,4,5,6-tetrahydro-pyrimidin-4-yl)-4-fluoro-phenyl]amide]	43
CN1C(=O)C(O)[C@@](C)(c2cc(NC(=O)c3ccccn3)ccc2F)N=C1N (stereo partly drawn) [Example 123, Pyridine-2-carboxylic acid [3-((R)-2-amino-5-hydroxy-1,4-dimethyl-6-oxo-1,4,5,6-tetrahydro-pyrimidin-4-yl)-4-fluoro-phenyl]amide]	350
COc1cccnc1C(=O)Nc1cccc([C@@]2(C)N=C(N)N(C)C(=O)C2(C)C)c1 [Example 93, 3-Methoxy-pyridine-2-carboxylic acid [3-((R)-2-amino-1,4,5,5-tetramethyl-6-oxo-1,4,5,6-tetrahydro-pyrimidin-4-yl)-phenyl]amide]	158
COc1ccc(C(=O)Nc2ccc(F)c([C@@]3(C)N=C(N)N(C)C(=O)C3(C)C)c2)nc1 [Example 113, 5-Methoxy-pyridine-2-carboxylic acid [3-((S)-2-amino-1,4,5,5-tetramethyl-6-oxo-1,4,5,6-tetrahydro-pyrimidin-4-yl)-4-fluoro-phenyl]amide]	21
CN1C(=O)C(C)(C)[C@@](C)(c2cc(NC(=O)c3ccn(C)n3)ccc2F)N=C1N [Example 98, 1-Methyl-1H-pyrazole-3-carboxylic acid [3-((S)-2-amino-1,4,5,5-tetramethyl-6-oxo-1,4,5,6-tetrahydro-pyrimidin-4-yl)-4-fluoro-phenyl]amide]	35
CN1C(=O)C[C@@](C)(c2cccc(NC(=O)c3ccn(CC(F)(F)F)n3)c2)N=C1N [Example 73, 1-(2,2,2-Trifluoro-ethyl)-1H-pyrazole-3-carboxylic acid [3-((S)-2-amino-1,4-dimethyl-6-oxo-1,4,5,6-tetrahydro-pyrimidin-4-yl)-phenyl]-amide]	2070
CC[C@H]1C(=O)N(C)C(N)=N[C@]1(C)c1cccc(NC(=O)c2ccc(Cl)cn2)c1 [Example 92, 5-Chloro-pyridine-2-carboxylic acid [3-((4S,5R)-2-amino-5-ethyl-1,4-dimethyl-6-oxo-1,4,5,6-tetrahydro-pyrimidin-4-yl)-phenyl]-amide]	24

The next lines start with the values.

IC50 [nM]	Compound
61	CN1C(=O)C[C@@](C)(c2cccc(NC(=O)c3ccn(C)n3)c2)N=C1N [Example 69, 1-Methyl-1H-pyrazole-3-carboxylic acid [3-((S)-2-amino-1,4-dimethyl-6-oxo-1,4,5,6-tetrahydro-pyrimidin-4-yl)-phenyl]-amide]
87	CC[C@@]1(c2cccc(NC(=O)c3ncccc3Cl)c2)CC(=O)N(C)C(N)=N1 [Example 43, 3-Chloro-pyridine-2-carboxylic acid [3-((S)-2-amino-4-ethyl-1-methyl-6-oxo-1,4,5,6-tetrahydro-pyrimidin-4-yl)-phenyl]-amide]
307	Cc1cc(C(=O)Nc2cccc([C@]3(C)CC(=O)N(C)C(N)=N3)c2)on1 [Example 6, 3-Methyl-isoxazole-5-carboxylic acid [3-((S)-2-amino-1,4-dimethyl-6-oxo-1,4,5,6-tetrahydro-pyrimidin-4-yl)-phenyl]amide]
220	Cc1cccc(C(=O)Nc2cccc([C@]3(C)CC(=O)N(C)C(N)=N3)c2)n1 [Example 32, 6-Methyl-pyridine-2-carboxylic acid [3-((S)-2-amino-1,4-dimethyl-6-oxo-1,4,5,6-tetrahydro-pyrimidin-4-yl)-phenyl]-amide]
590	Cc1cc(C(=O)Nc2cccc([C@]3(C)CC(=O)N(C)C(N)=N3)c2)no1 [Example 82, 5-Methyl-isoxazole-3-carboxylic acid [3-((S)-2-amino-1,4-dimethyl-6-oxo-1,4,5,6-tetrahydro-pyrimidin-4-yl)-phenyl]-amide]
1520	CN1C(=O)C[C@@](C)(c2cccc(NC(=O)c3nc(Cl)ccc3C(F)(F)F)c2)N=C1N [Example 72, 6-Chloro-3-trifluoromethyl-pyridine-2-carboxylic acid [3-((S)-2-amino-1,4-dimethyl-6-oxo-1,4,5,6-tetrahydro-pyrimidin-4-yl)-phenyl]-amide]
1580	Cc1nn(C)cc1C(=O)Nc1cccc([C@]2(C)CC(=O)N(C)C(N)=N2)c1 [Example 77, 1,3-Dimethyl-1H-pyrazole-4-carboxylic acid [3-((S)-2-amino-1,4-dimethyl-6-oxo-1,4,5,6-tetrahydro-pyrimidin-4-yl)-phenyl]-amide]
549	CN1C(=O)C[C@@](C)(c2cccc(NC(=O)c3ccc(Cl)nc3)c2)N=C1N [Example 19, N-[3-((S)-2-Amino-1,4-dimethyl-6-oxo-1,4,5,6-tetrahydro-pyrimidin-4-yl)-phenyl]-6-chloro-nicotinamide]
9	CN1C(=O)C[C@@](C)(c2cccc(NC(=O)c3ccccn3)c2)N=C1N [Example 13, Pyridine-2-carboxylic acid [3-((S)-2-amino-1,4-dimethyl-6-oxo-1,4,5,6-tetrahydro-pyrimidin-4-yl)-phenyl]-amide]
1780	CCC[C@@]1(c2cccc(NC(=O)c3ccccn3)c2)CC(=O)N(C)C(N)=N1 [Example 88, Pyridine-2-carboxylic acid [3-((S)-2-amino-1-methyl-6-oxo-4-propyl-1,4,5,6-tetrahydro-pyrimidin-4-yl)-phenyl]-amide]
21	CN1C(=O)C[C@@](C)(c2cccc(NC(=O)c3ncccc3-c3ccccc3)c2)N=C1N [Example 37, 3-Phenyl-pyridine-2-carboxylic acid [3-((S)-2-amino-1,4-dimethyl-6-oxo-1,4,5,6-tetrahydro-pyrimidin-4-yl)-phenyl]-amide]
1010	Cc1cc(C(=O)Nc2cccc([C@]3(C)CC(=O)N(C)C(N)=N3)c2)nn1C [Example 7, 1,5-Dimethyl-1H-pyrazole-3-carboxylic acid [3-((S)-2-amino-1,4-dimethyl-6-oxo-1,4,5,6-tetrahydro-pyrimidin-4-yl)-phenyl]amide]
240	CN1C(=O)C[C@@](C)(c2cccc(NC(=O)c3ncccc3Sc3ccccc3)c2)N=C1N [Example 61, 3-Phenylsulfanyl-pyridine-2-carboxylic acid [3-((S)-2-amino-1,4-dimethyl-6-oxo-1,4,5,6-tetrahydro-pyrimidin-4-yl)-phenyl]-amide]
25	COc1ccc(C(=O)Nc2cccc([C@]3(C)CC(=O)N(C)C(N)=N3)c2)nc1 [Example 14, 5-Methoxy-pyridine-2-carboxylic acid [3-((S)-2-amino-1,4-dimethyl-6-oxo-1,4,5,6-tetrahydro-pyrimidin-4-yl)-phenyl]-amide]
13	Cc1ccc(C(=O)Nc2cccc([C@]3(C)CC(=O)N(C)C(N)=N3)c2)s1 [Example 1, 5-Methyl-thiophene-2-carboxylic acid [3-((S)-2-amino-1,4-dimethyl-6-oxo-1,4,5,6-tetrahydro-pyrimidin-4-yl)-phenyl]-amide]

Reference: patent publication US8461160B2, “Dihydropyrimidinones” (Hoffmann-La Roche, Inc., priority 2009, dated 2013)
